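Results reflect a 48-hour exposure of cells in 96-well plates to compound at five concentrations. TGI marks complete inhibition of growth.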
Columns and labels:
Assay in all cases: NCI anticancer screen, dose series, 48 h
[1] = test system: NCI-H23 lung
[2] = test system: OVCAR-3 ovarian
[3] = test system: SF-539 CNS
[4] = test system: KM12 colon
[5] = test system: 786-0 renal
[6] = test system: SK-MEL-5 melanoma
[7] = test system: PC-3 prostate
[8] = test system: OVCAR-8 ovarian
[9] = test system: NCI-H460 lung
[10] = test system: OVCAR-5 ovarian

Compound | TGI [1] | TGI [2] | TGI [3] | TGI [4] | TGI [5] | TGI [6] | TGI [7] | TGI [8] | TGI [9] | TGI [10]
Cc1[nH]c2c(c1C)S(=O)(=O)c1cc3ccccc3nc1N2 | > 100 µM | 45.2 µM | 25.2 µM | > 100 µM | 30.4 µM | 28.8 µM | > 100 µM | 30.4 µM | > 100 µM | 59 µM
CCN(CC)CC1CCCCN1CC(=O)N1c2ccccc2NC(=O)CC1C (stereo not given) | > 100 µM | > 100 µM | > 100 µM | > 100 µM | > 100 µM | > 100 µM | > 100 µM | > 100 µM | > 100 µM | > 100 µM
O=C(c1ccco1)N1CCCN(C(=O)c2ccco2)C1=S | > 100 µM | > 100 µM | > 100 µM | > 100 µM | > 100 µM | > 100 µM | > 100 µM | > 100 µM | > 100 µM | > 100 µM
N/C(=N\S(=O)(=O)c1ccc(S(=O)(=O)c2ccccc2)s1)Nc1ccc(Cl)cc1 | 90.4 µM | 79.6 µM | 84.3 µM | > 100 µM | 41.5 µM | 32.5 µM | 29.6 µM | 45.1 µM | 33.8 µM | 97.6 µM
COC(=O)[C@]1(c2cc3ccccc3n2S(=O)(=O)c2ccccc2)CC2CN(C(C)=O)C1CC2=O (stereo not given in full) | 9.38 µM | 6.03 µM | 12.7 µM | 8.22 µM | 2.97 µM | 14 µM | 3.83 µM | 11.1 µM | 10.9 µM | 13.1 µM
COC(=O)NCCc1[nH]nc2c1C(=O)C=C(N1CCOCC1)C2=O | > 100 µM | > 100 µM | > 100 µM | > 100 µM | > 100 µM | > 100 µM | > 100 µM | > 100 µM | > 100 µM | > 100 µM
